Several values for one entry are separate records, joined by “and”; a condition that tells them apart may be missing. Equal values may be shown once. Read-outs that look alike come from different tables or passages of the source.
What was measured:
Sitophilus zeamais [1] = experiment: whole plant or invertebrate; conditions: Sitophilus zeamais; for EC90: read-out: Fumigant Toxicity LC90 (95% FL)
Procedure: (§1) The insects used in this study were Sitophilus zeamais Motschulsky (Coleoptera: Curculionidae), identified by the Instituto Colombiano Agropecuario (ICA) under report number R3823M0000425. […] The adult insects used in all the experiments were 6 to 10 days post-emergence.
The treated disks were affixed to the inner surface of the screw cap of 22 mL glass vials. […] All treatments were performed in two independent experiments, each with five replicates.
(§2) Mixtures predicted by the RSM were prepared based on mole fractions. […] Four replicates were performed for each treatment and control across two independent experimental runs.
Dose reduction indices (DRIs) were also calculated to estimate how much the dose of each compound in a synergistic combination could be reduced to achieve a 50% effect (Equation (4)). DRIs were interpreted as favorable when >1, neutral at 1, and unfavorable when <1. Values above the log DRI = 0 line indicate favorable dose reductions.(4) (IRD)i=CL50i(fax)i/(1−(fax)i)^1/mi/(D)i

Sitophilus zeamais [2] = type: in vivo; conditions: for Contact Toxicity LD50 (95% FL) / Contact Toxicity LD90 (95% FL): topical, 24 h after exposure; for Contact Toxicity LD50i (LC-95%): mixtures and their components (Table 3)
Procedure: as §1
Groups of 10 insects, previously placed in Petri dishes, were immobilized by exposure to low temperatures (0 °C). An initial dose of 50.0 µg per adult was applied topically to the dorsal thorax of each insect using aliquots of 0.20 µL from 0.25 mg/µL solutions in n-hexane. […] All treatments were performed in two independent experiments, each with four replicates. Insect mortality was assessed after 24 h, and mortality percentages were calculated using Abbott’s correction formula (Equation (1)).
as §2
Dose reduction indices (DRIs) were also calculated to estimate how much the dose of each compound in a synergistic combination could be reduced to achieve a 50% effect (Equation (4)). DRIs were interpreted as favorable when >1, neutral at 1, and unfavorable when <1.

[3] = in Homo sapiens, 24 h, read-out: Fumigant Toxicity LC50 (95% FL)

**Q.** With `CC1C(=O)CC2(C(C)C)CC12` (stereo not drawn) [Compound C6, α, β-Thujone (70:10)] as the compound, how does the LC50 (Sitophilus zeamais [1]; [3]) read?
**A.** The LC50 was 4.34 µg/mL and 28.5 µM.

**Q.** What about the EC90 (Sitophilus zeamais [1]; in Homo sapiens, 24 h) of the same compound?
**A.** Its EC90 is 6.81 µg/mL and 44.7 µM.

**Q.** And the “Contact Toxicity LD50 (95% FL)” value (Sitophilus zeamais [2])?
**A.** The value was 32.04 (29.44–34.42) µg/Adult.

**Q.** And the “Contact Toxicity LD90 (95% FL)” value (Sitophilus zeamais [2])?
**A.** Its value is 44.67 (41.56–49.34) µg/Adult.

**Q.** `CC1(C)C(=O)[C@]2(C)CC[C@H]1C2` [Compound C8, 1R-(−)-Fenchone] was tested. Which LC50 (Sitophilus zeamais [1]; [3]) did it give?
**A.** Its LC50 is 10.6 µg/mL and 69.6 µM.

**Q.** What about the EC90 (Sitophilus zeamais [1]; in Homo sapiens, 24 h) of the same compound?
**A.** The EC90 was 17.1 µg/mL and 112 µM.

**Q.** What about the “Contact Toxicity LD50 (95% FL)” value (Sitophilus zeamais [2]) of the same compound?
**A.** Its value is 34.65 (32.19–37.08) µg/Adult.

**Q.** What about the “Contact Toxicity LD90 (95% FL)” value (Sitophilus zeamais [2]) of the same compound?
**A.** The value was 48.33 (45.12–52.78) µg/Adult.

**Q.** `CCCCCCCC(C)=O` [Compound C9, 2-Nonanone] was tested. Which LC50 (Sitophilus zeamais [1]; [3]) did it give?
**A.** Its LC50 is 9.09 µg/mL and 63.9 µM.

**Q.** What about the EC90 (Sitophilus zeamais [1]; in Homo sapiens, 24 h) of the same compound?
**A.** Its EC90 is 13.7 µg/mL and 96.5 µM.

**Q.** What about the “Contact Toxicity LD50 (95% FL)” value (Sitophilus zeamais [2]) of the same compound?
**A.** The value was 31.86 (30.27–33.17) µg/Adult.

**Q.** And the “Contact Toxicity LD90 (95% FL)” value (Sitophilus zeamais [2])?
**A.** The value was 39.69 (38.01–42.15) µg/Adult.

**Q.** With `C=C1CCC2CC1C2(C)C` (stereo not drawn) [Compound C17, β-Pinene] as the compound, how does the EC90 (Sitophilus zeamais [1]; in Homo sapiens, 24 h) read?
**A.** Its EC90 is 151 µg/mL.

**Q.** For `CC1=CC(=O)C(C(C)C)CC1` (centres unmarked) [Compound C22, Piperitone], which LC50 (Sitophilus zeamais [1]; [3]) is on record?
**A.** The LC50 was 4.38 µg/mL and 28.8 µM.

**Q.** What about the EC90 (Sitophilus zeamais [1]; in Homo sapiens, 24 h) of the same compound?
**A.** The EC90 was 6.19 µg/mL and 40.7 µM.

**Q.** And the “Contact Toxicity LD90 (95% FL)” value (Sitophilus zeamais [2])?
**A.** The value was 14.70 (13.25–16.96) µg/Adult.

**Q.** `CC1=CCC(=C(C)C)CC1` [Compound C24, Terpinolene] was tested. Which LC50 (Sitophilus zeamais [1]; [3]) did it give?
**A.** The LC50 was 52.1 µg/mL and 338 µM.

**Q.** And the EC90 (Sitophilus zeamais [1]; in Homo sapiens, 24 h)?
**A.** Its EC90 is 88.8 µg/mL and 576 µM.

**Q.** `CC(C)=CCC/C(C)=C/C=O` [Compound C27, Citral] was tested. Which “Contact Toxicity LD90 (95% FL)” value (Sitophilus zeamais [2]) did it give?
**A.** The value was 32.68 (29.77–36.82) µg/Adult.

**Q.** Which results are given for `C=CC(C)(O)CCC=C(C)C` (centres unmarked) [Compound C28, Linalool]?
**A.** Contact Toxicity LD50 (95% FL) (Sitophilus zeamais [2]): 21.87 (19.09–24.23) µg/Adult; Contact Toxicity LD90 (95% FL) (Sitophilus zeamais [2]): 36.23 (33.20–40.64) µg/Adult

**Q.** For `CC(C)=CCC/C(C)=C/CO` [Compound C30, Geraniol], which “Contact Toxicity LD50 (95% FL)” value (Sitophilus zeamais [2]) is on record?
**A.** The value was 28.13 (25.70–30.49) µg/Adult.

**Q.** And the “Contact Toxicity LD90 (95% FL)” value (Sitophilus zeamais [2])?
**A.** Its value is 41.06 (37.98–45.41) µg/Adult.

**Q.** For `C=CCc1ccc2c(c1)OCO2` [Compound C32, Safrole], which “Contact toxicity, times less active than biosynthetic precursors C26 and C31” value (Sitophilus zeamais [2]; in vivo) is on record?
**A.** Its value is 1.5 times.

**Q.** And the “Contact Toxicity LD50 (95% FL)” value (Sitophilus zeamais [2])?
**A.** The value was 36.31 (30.15–42.37) µg/Adult.

**Q.** And the “Contact Toxicity LD90 (95% FL)” value (Sitophilus zeamais [2])?
**A.** The value was 83.04 (73.50–96.63) µg/Adult.

**Q.** Which results are given for `CCCCCCCC(=O)CCC` [Compound C34, 4-Undecanone]?
**A.** Contact Toxicity LD50 (95% FL) (Sitophilus zeamais [2]): 37.05 (34.09–40.01) µg/Adult; Contact Toxicity LD90 (95% FL) (Sitophilus zeamais [2]): 53.95 (49.63–60.68) µg/Adult

**Q.** How did the LC50 (Sitophilus zeamais [1]; read-out: LC50 values, fumigant activity (Figure 3)) turn out when `CCCCCCCCC(C)=O` [Compound C35, 2-Decanone] was run?
**A.** Its LC50 is > 150 µg/mL.

**Q.** What about the “Contact Toxicity LD50 (95% FL)” value (Sitophilus zeamais [2]) of the same compound?
**A.** Its value is 38.04 (35.29–40.84) µg/Adult.

**Q.** What about the “Contact Toxicity LD90 (95% FL)” value (Sitophilus zeamais [2]) of the same compound?
**A.** Its value is 57.17 (52.97–63.12) µg/Adult.

**Q.** `CCCCCCCCCC(C)=O` [Compound C36, 2-Undecanone] was tested. Which “Contact Toxicity LD50 (95% FL)” value (Sitophilus zeamais [2]) did it give?
**A.** Its value is 42.86 (40.60–45.30) µg/Adult.

**Q.** And the “Contact Toxicity LD90 (95% FL)” value (Sitophilus zeamais [2])?
**A.** The value was 57.13 (53.43–62.83) µg/Adult.

**Q.** `CC(=O)OC/C=C(\C)CCC=C(C)C` [Compound C37, Geranyl acetate] was tested. Which “Contact Toxicity LD50 (95% FL)” value (Sitophilus zeamais [2]) did it give?
**A.** The value was 73.00 (65.98–81.05) µg/Adult.

**Q.** What about the “Contact Toxicity LD90 (95% FL)” value (Sitophilus zeamais [2]) of the same compound?
**A.** Its value is 126.06 (112.84–146.08) µg/Adult.

**Q.** `CC1(C)C(C=C(Cl)Cl)C1C(=O)OC(C#N)c1cccc(Oc2ccccc2)c1` (centres unmarked) [Cypermethrin, reference compound] was tested. Which “Contact Toxicity LD50i (LC-95%)” value (Sitophilus zeamais [2]) did it give?
**A.** The value was 10.49 (0.10–19.96) µg/Adult.

**Q.** And the “Contact Toxicity LD50i (LC-95%)” value (Sitophilus zeamais [2]; listed as cypermethrin)?
**A.** Its value is 10.49 µg/Adult.

**Q.** And the “Contact Toxicity LD50 (95% FL)” value (Sitophilus zeamais [2])?
**A.** Its value is 10.492 (0.00–29.96) µg/Adult.

**Q.** What about the “Contact Toxicity LD90 (95% FL)” value (Sitophilus zeamais [2]) of the same compound?
**A.** Its value is 35.79 (21.98–84.37) µg/Adult.

**Q.** What does the source list for Isoeugenol [Compound C31]?
**A.** Contact Toxicity LD50 (95% FL) (Sitophilus zeamais [2]): 29.1 (24.40–34.21) µg/Adult; Contact Toxicity LD90 (95% FL) (Sitophilus zeamais [2]): 66.2 (57.28–80.01) µg/Adult

Source: article PMC12194779, “Synergistic Insecticidal Activity of Plant Volatile Compounds: Impact on Neurotransmission and Detoxification Enzymes in Sitophilus zeamais” (Insects, 2025)
